# From patent US7670613B2, “Androgen modulators” (Pfizer Inc., priority 2004, dated 2010)
# Tested on: male C3H/HeN mice
# Assay: Modified telogen conversion assay
# Type: in vivo, mouse
# Details: topical 1% and 3% w/v, twice daily for 4 weeks, observed 35 days or longer
# Excerpt: The telogen conversion assay measures the potential of a compound to convert the resting stage of the hair growth cycle (“telogen”) to the active stage of the hair growth cycle (“anagen”) in mice. This assay takes advantage of the fact that the fur (i.e. hair) of 7-week-old C3H/HeN mice is in the telogen phase. This phase continues until about 75 days of age. In this assay, selected areas of the mice are shaved, contacted with a test agent, or a control, and the difference in the rate of hair growth is measured (i.e. induction of the anagen phase). The first sign of anagen is the darkening of skin color as melanocytes in the follicles start to synthesize melanin, in preparation for the production of pigmented hairs. This model has a number of advantages. This includes the ready availability of female CH3HeN mice, the ability to screen large numbers of compounds quickly, and the ease of housing and handling such animals.
# It has been discovered that male C3H/HeN mice may be used in the telogen conversion assay, when evaluating anti-androgen test compounds. Thus, the model relates to a modification of the existing telogen conversion assay. […]
# The treatment area was observed and graded every other day for signs of hair growth. The hair growth response was quantified by recording, for each animal, the day on which signs of hair growth first appeared over the treated area. […]
structure (smiles),measurement,value
"CC1CCCCC1Oc1ccc(C#N)c(C(F)(F)F)c1 (stereo not shown) [Example 8, 4-(2-Methyl-cyclohexyloxy)-2-trifluoromethyl-benzonitrile]",Initiation of anagen (first signs of hair growth) versus vehicle control,not initiated in either of the test groups prior to its occurrence in the vehicle control group
